From patent US20140163023A1, “DIHYDROPYRROLO PYRIMIDINE DERIVATIVES AS MTOR INHIBITORS” (Cellzome Limited, priority 2011, published 2014)
Where a name gives a salt, the structure may show the parent alone.

Assays:
[1] = target: T1, mTOR (Homo sapiens, UniProt P42345); experiment: mTOR kinobeads assay (competition binding in cell lysate, dot blot detection); conditions: 1:1 mix of Jurkat and Ramos cell lysates, read-out: Inhibition values (IC50 in μM) as determined in the kinobeads assay, mTor
T1 construct: endogenous in cells; host or cells: Jurkat (ATCC TIB-152, clone E6-1) and Ramos (ATCC CRL-1596), 1:1 lysate mix
How it was run: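 Competition binding in a 1:1 mix of Jurkat and Ramos cell lysates at 5 mg/ml total protein, with compounds in a 1:3 dilution series and an affinity matrix of two immobilized ligands, 2 h in the cold with shaking. mTOR captured on the beads was eluted and quantified by antibody dot blot with infrared detection. IC50 came from dose-response curves.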

[2] = target: T2, PI3Kα (Homo sapiens, UniProt P42336); experiment: kinobeads assay, PI3Kα; type: binding; conditions: 1:1 mix of Jurkat and Ramos cell lysates, read-out: Inhibition values (IC50 in μM) as determined in the kinobeads assay, PI3Kα
T2 construct: endogenous in cells; host or cells: Jurkat (ATCC TIB-152, clone E6-1) and Ramos (ATCC CRL-1596), 1:1 lysate mix
How it was run: (§1)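 Competition binding in 1:1 Jurkat/Ramos cell lysate (5 mg/ml protein) with test compound and a 1:1 mix of phenylthiazole- and phenylmorpholin-chromen-ligand beads, 2 h in cold room with shaking. Bead-bound kinases were eluted, quantified by antibody dot blot with infrared detection, and IC50 derived from dose-response curves.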

[3] = target: T3, PI3Kβ (Homo sapiens, UniProt P42338); experiment: kinobeads assay, PI3Kβ; type: binding; conditions: 1:1 mix of Jurkat and Ramos cell lysates, read-out: Inhibition values (IC50 in μM) as determined in the kinobeads assay, PI3Kβ
T3 construct: endogenous in cells; host or cells: Jurkat (ATCC TIB-152, clone E6-1) and Ramos (ATCC CRL-1596), 1:1 lysate mix
How it was run: as §1

[4] = target: T4, PI3Kδ (Homo sapiens, UniProt O00329); experiment: kinobeads assay, PI3Kδ; type: binding; conditions: 1:1 mix of Jurkat and Ramos cell lysates, read-out: Inhibition values (IC50 in μM) as determined in the kinobeads assay, PI3Kδ
T4 construct: endogenous in cells; host or cells: Jurkat (ATCC TIB-152, clone E6-1) and Ramos (ATCC CRL-1596), 1:1 lysate mix
How it was run: as §1

[5] = target: T5, PI3Kγ (Homo sapiens, UniProt P48736); experiment: kinobeads assay, PI3Kγ; type: binding; conditions: 1:1 mix of Jurkat and Ramos cell lysates, read-out: Inhibition values (IC50 in μM) as determined in the kinobeads assay, PI3Kγ
T5 construct: endogenous in cells; host or cells: Jurkat (ATCC TIB-152, clone E6-1) and Ramos (ATCC CRL-1596), 1:1 lysate mix
How it was run: as §1

[6] = target: T6, DNA-dependent protein kinase (DNA-PK) (Homo sapiens, UniProt P78527); experiment: kinobeads assay, DNA-PK; type: binding; conditions: 1:1 mix of Jurkat and Ramos cell lysates, read-out: Inhibition values (IC50 in μM) as determined in the kinobeads assay, DNA-PK
T6 construct: endogenous in cells; host or cells: Jurkat (ATCC TIB-152, clone E6-1) and Ramos (ATCC CRL-1596), 1:1 lysate mix
How it was run: as §1

T3 sequence (P42338 whole entry): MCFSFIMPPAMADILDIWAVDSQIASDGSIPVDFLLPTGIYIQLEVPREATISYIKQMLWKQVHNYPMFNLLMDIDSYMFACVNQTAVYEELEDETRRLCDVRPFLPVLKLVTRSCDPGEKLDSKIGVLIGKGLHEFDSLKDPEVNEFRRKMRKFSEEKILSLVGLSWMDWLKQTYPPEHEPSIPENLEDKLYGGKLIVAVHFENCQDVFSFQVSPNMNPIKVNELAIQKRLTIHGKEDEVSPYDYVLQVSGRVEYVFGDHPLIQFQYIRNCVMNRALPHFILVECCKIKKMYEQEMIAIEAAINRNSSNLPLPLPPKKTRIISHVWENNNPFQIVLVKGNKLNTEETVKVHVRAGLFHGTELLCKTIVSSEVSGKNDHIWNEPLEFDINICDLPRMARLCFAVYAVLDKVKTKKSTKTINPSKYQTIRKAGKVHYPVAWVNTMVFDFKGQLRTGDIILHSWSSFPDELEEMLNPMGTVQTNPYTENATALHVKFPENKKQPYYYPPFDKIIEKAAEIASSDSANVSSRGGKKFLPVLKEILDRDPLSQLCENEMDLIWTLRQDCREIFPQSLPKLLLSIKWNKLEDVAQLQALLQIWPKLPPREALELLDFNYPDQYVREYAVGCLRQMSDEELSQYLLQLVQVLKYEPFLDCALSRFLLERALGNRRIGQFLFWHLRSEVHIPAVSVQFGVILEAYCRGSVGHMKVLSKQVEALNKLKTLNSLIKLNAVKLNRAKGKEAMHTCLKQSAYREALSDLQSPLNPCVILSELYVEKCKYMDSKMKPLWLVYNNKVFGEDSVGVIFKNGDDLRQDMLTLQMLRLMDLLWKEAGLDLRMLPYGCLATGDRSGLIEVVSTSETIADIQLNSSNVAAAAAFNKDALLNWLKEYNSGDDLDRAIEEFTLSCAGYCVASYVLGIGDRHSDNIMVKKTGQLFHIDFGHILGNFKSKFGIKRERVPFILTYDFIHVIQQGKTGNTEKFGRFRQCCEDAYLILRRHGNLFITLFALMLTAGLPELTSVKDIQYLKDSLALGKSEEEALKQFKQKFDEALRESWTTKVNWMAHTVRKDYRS
T3 sequence (P27986 whole entry partner): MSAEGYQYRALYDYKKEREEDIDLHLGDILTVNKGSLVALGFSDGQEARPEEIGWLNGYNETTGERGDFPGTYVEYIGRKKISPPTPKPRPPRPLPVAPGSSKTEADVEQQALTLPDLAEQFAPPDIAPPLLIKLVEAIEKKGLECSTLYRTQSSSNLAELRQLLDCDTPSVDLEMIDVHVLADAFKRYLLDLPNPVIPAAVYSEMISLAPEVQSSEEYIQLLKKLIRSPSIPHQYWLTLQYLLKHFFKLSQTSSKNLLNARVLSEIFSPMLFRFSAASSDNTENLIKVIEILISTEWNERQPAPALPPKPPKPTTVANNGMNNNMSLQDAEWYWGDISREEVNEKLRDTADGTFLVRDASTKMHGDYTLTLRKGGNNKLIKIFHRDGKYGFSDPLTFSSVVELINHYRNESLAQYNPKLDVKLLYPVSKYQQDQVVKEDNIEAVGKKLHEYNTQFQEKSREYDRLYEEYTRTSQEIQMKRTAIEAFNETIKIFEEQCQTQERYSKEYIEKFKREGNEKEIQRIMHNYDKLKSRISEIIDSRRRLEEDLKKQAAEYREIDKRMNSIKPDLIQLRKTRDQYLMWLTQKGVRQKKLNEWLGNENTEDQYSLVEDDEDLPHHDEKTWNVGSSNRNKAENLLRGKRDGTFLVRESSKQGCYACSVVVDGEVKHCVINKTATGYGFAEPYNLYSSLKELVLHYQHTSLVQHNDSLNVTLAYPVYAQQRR
T2 sequence (P42336 whole entry): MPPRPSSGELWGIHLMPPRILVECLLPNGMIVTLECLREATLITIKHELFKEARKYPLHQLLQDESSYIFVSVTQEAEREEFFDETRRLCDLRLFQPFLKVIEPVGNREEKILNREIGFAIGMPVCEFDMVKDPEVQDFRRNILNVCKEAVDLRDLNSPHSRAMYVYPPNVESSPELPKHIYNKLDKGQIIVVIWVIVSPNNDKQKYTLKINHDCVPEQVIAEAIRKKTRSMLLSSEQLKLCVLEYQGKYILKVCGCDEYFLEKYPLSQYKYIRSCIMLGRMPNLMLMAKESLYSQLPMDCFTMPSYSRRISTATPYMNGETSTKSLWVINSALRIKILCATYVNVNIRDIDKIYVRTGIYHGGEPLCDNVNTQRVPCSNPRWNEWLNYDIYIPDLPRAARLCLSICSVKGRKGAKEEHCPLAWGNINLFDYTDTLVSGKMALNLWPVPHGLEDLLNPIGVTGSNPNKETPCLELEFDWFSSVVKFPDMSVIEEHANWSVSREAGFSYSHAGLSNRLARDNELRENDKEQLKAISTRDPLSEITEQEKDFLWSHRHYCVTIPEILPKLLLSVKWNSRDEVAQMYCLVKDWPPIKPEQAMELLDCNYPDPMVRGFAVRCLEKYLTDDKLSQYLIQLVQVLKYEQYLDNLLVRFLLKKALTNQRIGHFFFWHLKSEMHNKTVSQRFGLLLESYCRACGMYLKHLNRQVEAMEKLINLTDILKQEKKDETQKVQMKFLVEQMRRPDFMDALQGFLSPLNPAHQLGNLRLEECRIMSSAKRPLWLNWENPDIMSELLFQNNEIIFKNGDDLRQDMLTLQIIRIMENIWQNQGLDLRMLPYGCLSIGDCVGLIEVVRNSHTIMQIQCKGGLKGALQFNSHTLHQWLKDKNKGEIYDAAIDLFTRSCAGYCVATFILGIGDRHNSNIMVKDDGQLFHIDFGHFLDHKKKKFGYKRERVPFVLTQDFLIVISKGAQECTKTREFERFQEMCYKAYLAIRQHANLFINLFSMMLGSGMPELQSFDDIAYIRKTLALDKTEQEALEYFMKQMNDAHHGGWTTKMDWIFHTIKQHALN
T2 sequence (P27986 whole entry partner): as the sequence (P27986 whole entry partner) above
T4 sequence (O00329 whole entry): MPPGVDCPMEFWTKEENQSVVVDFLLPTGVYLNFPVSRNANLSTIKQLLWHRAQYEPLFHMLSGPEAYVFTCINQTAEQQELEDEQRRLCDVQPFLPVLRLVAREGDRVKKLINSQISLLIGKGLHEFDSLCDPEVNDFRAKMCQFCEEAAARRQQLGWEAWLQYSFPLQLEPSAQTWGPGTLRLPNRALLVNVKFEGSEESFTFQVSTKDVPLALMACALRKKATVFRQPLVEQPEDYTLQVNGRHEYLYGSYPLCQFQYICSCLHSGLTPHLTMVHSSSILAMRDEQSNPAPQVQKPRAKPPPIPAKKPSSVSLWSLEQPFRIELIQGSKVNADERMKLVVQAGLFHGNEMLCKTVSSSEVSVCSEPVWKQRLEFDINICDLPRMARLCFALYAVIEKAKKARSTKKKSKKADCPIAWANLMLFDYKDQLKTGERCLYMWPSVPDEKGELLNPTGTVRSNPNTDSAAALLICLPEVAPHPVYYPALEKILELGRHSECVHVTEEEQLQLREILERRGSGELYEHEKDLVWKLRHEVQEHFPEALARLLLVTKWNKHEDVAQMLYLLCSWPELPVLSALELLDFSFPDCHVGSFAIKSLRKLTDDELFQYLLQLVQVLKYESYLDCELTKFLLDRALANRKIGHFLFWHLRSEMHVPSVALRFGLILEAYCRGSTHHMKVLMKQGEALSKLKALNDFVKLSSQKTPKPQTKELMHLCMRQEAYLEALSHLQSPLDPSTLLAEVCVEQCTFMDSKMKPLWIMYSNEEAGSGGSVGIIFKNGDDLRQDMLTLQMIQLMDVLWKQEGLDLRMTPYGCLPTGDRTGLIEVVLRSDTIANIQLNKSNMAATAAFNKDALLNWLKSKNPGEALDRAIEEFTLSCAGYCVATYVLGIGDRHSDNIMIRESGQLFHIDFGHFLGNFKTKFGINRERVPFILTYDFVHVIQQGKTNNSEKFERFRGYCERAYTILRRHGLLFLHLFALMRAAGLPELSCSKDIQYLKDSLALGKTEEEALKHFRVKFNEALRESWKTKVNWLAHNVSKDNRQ
T4 sequence (P27986 whole entry partner): as the sequence (P27986 whole entry partner) above
T5 sequence (P48736 whole entry): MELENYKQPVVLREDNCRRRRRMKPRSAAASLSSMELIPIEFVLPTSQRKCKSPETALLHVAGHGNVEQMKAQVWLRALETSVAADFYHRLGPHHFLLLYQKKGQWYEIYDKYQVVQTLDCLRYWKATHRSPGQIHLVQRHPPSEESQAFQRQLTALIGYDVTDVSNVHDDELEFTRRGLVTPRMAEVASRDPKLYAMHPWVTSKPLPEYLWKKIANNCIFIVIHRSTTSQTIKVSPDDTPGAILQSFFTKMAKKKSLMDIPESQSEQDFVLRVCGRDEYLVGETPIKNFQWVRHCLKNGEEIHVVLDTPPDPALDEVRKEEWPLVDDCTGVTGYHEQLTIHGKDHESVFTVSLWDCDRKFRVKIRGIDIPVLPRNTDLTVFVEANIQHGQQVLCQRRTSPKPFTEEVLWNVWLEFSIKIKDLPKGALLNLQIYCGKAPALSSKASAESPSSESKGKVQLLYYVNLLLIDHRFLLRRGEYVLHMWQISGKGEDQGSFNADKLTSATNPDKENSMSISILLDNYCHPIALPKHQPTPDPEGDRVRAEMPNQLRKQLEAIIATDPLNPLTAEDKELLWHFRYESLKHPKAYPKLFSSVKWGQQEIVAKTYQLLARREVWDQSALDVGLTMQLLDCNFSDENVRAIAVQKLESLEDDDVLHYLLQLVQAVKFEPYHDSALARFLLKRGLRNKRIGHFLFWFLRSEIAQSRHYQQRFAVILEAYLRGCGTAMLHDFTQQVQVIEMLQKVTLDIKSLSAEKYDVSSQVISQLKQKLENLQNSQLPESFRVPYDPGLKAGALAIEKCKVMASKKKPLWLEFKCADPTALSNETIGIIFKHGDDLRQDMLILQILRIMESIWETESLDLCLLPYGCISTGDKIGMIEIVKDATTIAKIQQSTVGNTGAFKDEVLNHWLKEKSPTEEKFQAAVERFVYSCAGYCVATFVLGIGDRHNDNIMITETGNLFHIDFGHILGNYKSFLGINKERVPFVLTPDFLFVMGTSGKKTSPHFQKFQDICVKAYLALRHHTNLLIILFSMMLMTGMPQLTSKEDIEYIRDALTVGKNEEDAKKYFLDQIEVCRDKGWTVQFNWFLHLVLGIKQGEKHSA

IC50 [1] [µM] | IC50 [2] [µM] | IC50 [3] [µM] | IC50 [4] [µM] | IC50 [5] [µM] | IC50 [6] [µM] | Compound
1 to 10 | 10 to 100 | 10 to 100 | 10 to 100 | 10 to 100 | > 100 | C[C@H]1COCCN1c1nc2c(c(-c3ccc(NC(=O)NC4CC4)cc3)n1)CN(C(=O)C1CCCN1)C2 (stereo partly drawn) [Example 41, 1-cyclopropyl-3-(4-(2-((S)-3-methylmorpholino)-6-(pyrrolidine-2-carbonyl)-6,7-dihydro-5H-pyrrolo[3,4-d]pyrimidin-4-yl)phenyl)urea hydrochloride]
0.1 to 1 | 10 to 100 | 10 to 100 | 10 to 100 | > 100 | > 100 | C[C@H]1COCCN1c1nc2c(c(-c3ccc(NC(=O)NC4CC4)cc3)n1)CN(C(N)=O)C2 [Example 42, (S)-4-(4-(3-cyclopropylureido)phenyl)-2-(3-methylmorpholino)-5H-pyrrolo[3,4-d]pyrimidine-6(7H)-carboxamide 2,2,2-trifluoroacetate]
≤ 0.1 | > 100 | > 100 | > 100 | > 100 | 1 to 10 | O=C(NCCO)Nc1ccc(-c2nc(N3CC4CCC(C3)O4)nc3c2CNC3)cc1 [Example 43, 1-(4-(2-(8-oxa-3-azabicyclo[3.2.1]octan-3-yl)-6,7-dihydro-5H-pyrrolo[3,4-d]pyrimidin-4-yl)phenyl)-3-(2-hydroxyethyl)urea hydrochloride]
0.1 to 1 | > 100 | 10 to 100 | 10 to 100 | > 100 | 10 to 100 | CCNC(=O)Nc1ccc(-c2nc(N3CC4CCC(C3)O4)nc3c2CNC3)cc1 [Example 44, 1-(4-(2-(8-oxa-3-azabicyclo[3.2.1]octan-3-yl)-6,7-dihydro-5H-pyrrolo[3,4-d]pyrimidin-4-yl)phenyl)-3-ethylurea hydrochloride]
1 to 10 | 10 to 100 | > 100 | > 100 | > 100 | > 100 | CC(O)CNC(=O)Nc1ccc(-c2nc(N3CCOC[C@@H]3C)nc3c2CN(C(C)C)C3)cc1 (stereo partly drawn) [Example 45, 1-(2-hydroxypropyl)-3-(4-(6-isopropyl-2-((S)-3-methylmorpholino)-6,7-dihydro-5H-pyrrolo[3,4-d]pyrimidin-4-yl)phenyl)urea]
1 to 10 | > 100 | > 100 | > 100 | > 100 | > 100 | CCNC(=O)Nc1ccc(-c2nc(N3CCOC[C@@H]3C)nc3c2CN(C(C)C)C3)cc1 [Example 46, (S)-1-ethyl-3-(4-(6-isopropyl-2-(3-methylmorpholino)-6,7-dihydro-5H-pyrrolo[3,4-d]pyrimidin-4-yl)phenyl)urea 2,2,2-trifluoroacetate]
1 to 10 | > 100 | 10 to 100 | > 100 | > 100 | > 100 | C[C@H]1COCCN1c1nc2c(c(-c3ccc(NC(=O)NC4CC4)cc3)n1)CN(C(=O)CN1CCOCC1)C2 [Example 47, (S)-1-cyclopropyl-3-(4-(2-(3-methylmorpholino)-6-(2-morpholinoacetyl)-6,7-dihydro-5H-pyrrolo[3,4-d]pyrimidin-4-yl)phenyl)urea 2,2,2-trifluoroacetate]
1 to 10 | > 100 | > 100 | > 100 | > 100 | > 100 | CC(C)CN1Cc2nc(N3CC4CCC(C3)O4)nc(-c3ccc(NC(=O)NCCO)cc3)c2C1 [Example 48, 1-(4-(2-(8-oxa-3-azabicyclo[3.2.1]octan-3-yl)-6-isobutyl-6,7-dihydro-5H-pyrrolo[3,4-d]pyrimidin-4-yl)phenyl)-3-(2-hydroxyethyl)urea 2,2,2-trifluoroacetate]
1 to 10 | > 100 | > 100 | > 100 | > 100 | > 100 | CCNC(=O)Nc1ccc(-c2nc(N3CC4CCC(C3)O4)nc3c2CN(C(C)C)C3)cc1 [Example 49, 1-(4-(2-(8-oxa-3-azabicyclo[3.2.1]octan-3-yl)-6-isopropyl-6,7-dihydro-5H-pyrrolo[3,4-d]pyrimidin-4-yl)phenyl)-3-ethylurea 2,2,2-trifluoroacetate]
1 to 10 | > 100 | > 100 | > 100 | > 100 | > 100 | CS(=O)(=O)N1Cc2nc(N3CC4CCC(C3)O4)nc(-c3ccc(NC(=O)NC4CC4)cc3)c2C1 [Example 50, 1-(4-(2-(8-oxa-3-azabicyclo[3.2.1]octan-3-yl)-6-(methylsulfonyl)-6,7-dihydro-5H-pyrrolo[3,4-d]pyrimidin-4-yl)phenyl)-3-cyclopropylurea]
1 to 10 | > 100 | > 100 | > 100 | > 100 | > 100 | CC(CO)NC(=O)Nc1ccc(-c2nc(N3CCOC[C@@H]3C)nc3c2CN(C(C)C)C3)cc1 (stereo partly drawn) [Example 51, 1-(1-hydroxypropan-2-yl)-3-(4-(6-isopropyl-2-((S)-3-methylmorpholino)-6,7-dihydro-5H-pyrrolo[3,4-d]pyrimidin-4-yl)phenyl)urea 2,2,2-trifluoroacetate]
1 to 10 | > 100 | > 100 | > 100 | > 100 | > 100 | CC(C)N1Cc2nc(N3CCOC[C@@H]3C)nc(-c3ccc(NC(=O)NCCC#N)cc3)c2C1 [Example 52, (S)-1-(2-cyanoethyl)-3-(4-(6-isopropyl-2-(3-methylmorpholino)-6,7-dihydro-5H-pyrrolo[3,4-d]pyrimidin-4-yl)phenyl)urea 2,2,2-trifluoroacetate]
